Test results published in patent US9572890B2, “Oral formulations of mitochondrially-targeted antioxidants and their preparation and use” (MITOTECH SA, priority 2011, dated 2017).

How the values were obtained:
[1] = Stability of MTAs in liquid solvents (degradation rate); type: physicochemical
Description: Liquid solvents were also tested for their ability to stabilize representative MTAs SkQ1 and SkQR1. The solvents tested were water solutions of glycerol (10% to 100%), 50% lactulose, and 1,2-propylene glycol (10% to 100%, at 60° C.). Some representative results are shown below (Table 1).

[2] = system: cytokines (IL-6, IL-8) protein secretion; assay: IL-6, IL-8 protein secretion induced by TNF-α in EAhy926 cells (ELISA); type: cell-based, human; settings: 0.2 nM for 4 d; TNF-α 5 ng/ml for 15 h
From the text: The effects of SkQ1 on ICAM-1 mRNA expression and cytokines (IL-6, IL-8) protein secretion induced by TNF-α in EAhy926 human endothelial cells (ATCC collection; catalog number CRL-2922) were examined. TNF-α is a central proinflammatory cytokine stimulating expression of cell adhesion molecules and many inflammatory cytokines. Anti-inflammatory properties of many drugs often rely on their ability to inhibit expression of pro-inflammatory cytokines induced by TNF-α using EAhy926 endothelial cells (Edgell et al. (1983) Proc. Natl. Acad. Sci. USA, 80:3734-7; Lombardi et al. (2009) Eur. J. Cell. Biol., 88:731-42; Manea et al. (2010) Cell Tissue Res., 340:71-9).
300,000 cells were plated on 60 mm^2 culture dishes and after attachment were treated with an SkQ1 solution (0.2 nM in DMEM medium with 10% fetal serum) for 4 d, and then stimulated with TNF-α (0.05 ng/ml for 4 h for ICAM-1 or 5 ng/ml for 15 h for cytokines, respectively). ICAM-1 mRNA expression was determined by real-time PCR (Okada et al. (2005) Invest. Ophtalmol. Vis. Sci., 46:4512-8). Secretion of IL-6 and IL-8 was evaluated by ELISA (Toma et al. (2009) Biochem. Biophys. Res. Commun., 390:877-82; Volanti et al. (2002) Photochem. Photobiol., 75:36-45.) The data is shown as means±S.E. at least for 3 separate experiments.

NFκB = NFκB activation caused by TNFα; type: cell-based
From the text: Additionally, SkQ1 decreases the phosphorylation and degradation of IkBa caused by TNFα. NFκB is known to be permanently active in many inflammatory diseases, such as inflammatory bowel disease, arthritis, sepsis, gastritis, asthma and atherosclerosis (Monaco et al. (2004) PNAS., 101:5634-9).

CC1=C(C)C(=O)C(CCCCCCCCCC[P+](c2ccccc2)(c2ccccc2)c2ccccc2)=CC1=O [SkQ1]
Degradation rate, percent per day ([1]; 400 mkM in 10% 1,2-propylene glycol, at 60° C.): 0.47 percent per day | Degradation rate, percent per day ([1]; 400 mkM in 10% Glycerol): 0.61 percent per day | Degradation rate, percent per day ([1]; 400 mkM in 20% Glycerol): 0.51 percent per day | Degradation rate, percent per day ([1]; 400 mkM in 30% Glycerol): 0.53 percent per day | Degradation rate, percent per day ([1]; 400 mkM in 40% Glycerol): 0.91 percent per day | Degradation rate, percent per day ([1]; 400 mkM in 50% 1,2-propylene glycol, at 60° C.): 0.06 percent per day | Degradation rate, percent per day ([1]; 400 mkM in 50% Glycerol): 1.54 percent per day | Degradation rate, percent per day ([1]; 400 mkM in 50% lactulose): 9.01 percent per day | Degradation rate, percent per day ([1]; 400 mkM in 60% Glycerol): 1.92 percent per day | Degradation rate, percent per day ([1]; 400 mkM in 70% Glycerol): 2.4 percent per day | Degradation rate, percent per day ([1]; 400 mkM in 80% Glycerol): 3.2 percent per day | Degradation rate, percent per day ([1]; 400 mkM in 90% Glycerol): 4.18 percent per day | Degradation rate, percent per day ([1]; 400 mkM in 100% 1,2-propylene glycol, at 60° C.): 0.18 percent per day | expression of inflammatory cytokines (IL-6, IL-8) [2]: prevents excessive expression | activation of NFκB (NFκB): prevent activation | phosphorylation and degradation of IkBa caused by TNFα (NFκB): decreases | translocation of transcription factor p65 (RelA) from the cytoplasm to the nucleus (NFκB): prevent translocation
